Tests used:
Experiment in all cases: relative viability (nuclei count vs DMSO), 5 days (fraction); higher = more cells survive
EHT 1864 + Pictilisib = compound: C1COCCN1CC2=CC(=O)C(=CO2)OCCCCCSC3=C4C=CC(=CC4=NC=C3)C(F)(F)F [EHT 1864] + CS(=O)(=O)N1CCN(Cc2cc3nc(-c4cccc5[nH]ncc45)nc(N4CCOCC4)c3s2)CC1 [Pictilisib] (partner 1 µM)
Method in brief: (§1)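 Each reported value is a median over duplicate plates. It expresses relative viability: treated-well nuclei count divided by vehicle-well nuclei count. Lung cancer cell lines in 1536-well plates were dosed by pin tool a day after seeding, alone with one drug or with a fixed anchor-drug dose plus five library-drug doses (not always all listed) in √10 steps, and nuclei were counted after 5 days.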

EHT 1864 + Foretinib = compound: C1COCCN1CC2=CC(=O)C(=CO2)OCCCCCSC3=C4C=CC(=CC4=NC=C3)C(F)(F)F [EHT 1864] + COc1cc2c(Oc3ccc(NC(=O)C4(C(=O)Nc5ccc(F)cc5)CC4)cc3F)ccnc2cc1OCCCN1CCOCC1 [Foretinib] (partner 0.25 µM)
Method in brief: as §1

EHT 1864 + Palbociclib = compound: C1COCCN1CC2=CC(=O)C(=CO2)OCCCCCSC3=C4C=CC(=CC4=NC=C3)C(F)(F)F [EHT 1864] + CC(=O)c1c(C)c2cnc(Nc3ccc(N4CCNCC4)cn3)nc2n(C2CCCC2)c1=O [Palbociclib] (partner 0.5 µM)
Method in brief: as §1

EHT 1864 + Bortezomib = compound: C1COCCN1CC2=CC(=O)C(=CO2)OCCCCCSC3=C4C=CC(=CC4=NC=C3)C(F)(F)F [EHT 1864] + CC(C)C[C@H](NC(=O)[C@H](Cc1ccccc1)NC(=O)c1cnccn1)B(O)O [Bortezomib] (partner 0.002 µM)
Method in brief: as §1

| Cell Line | relative viability (EHT 1864 + Pictilisib; first compound 0.04 µM) | relative viability (EHT 1864 + Pictilisib; first compound 0.1265 µM) | relative viability (EHT 1864 + Pictilisib; first compound 0.4 µM) | relative viability (EHT 1864 + Pictilisib; first compound 1.265 µM) | relative viability (EHT 1864 + Pictilisib; first compound 4 µM) | relative viability (EHT 1864 + Foretinib; first compound 0.04 µM) | relative viability (EHT 1864 + Foretinib; first compound 0.1265 µM) | relative viability (EHT 1864 + Foretinib; first compound 0.4 µM) | relative viability (EHT 1864 + Foretinib; first compound 1.265 µM) | relative viability (EHT 1864 + Foretinib; first compound 4 µM) | relative viability (EHT 1864 + Palbociclib; first compound 0.04 µM) | relative viability (EHT 1864 + Palbociclib; first compound 0.1265 µM) | relative viability (EHT 1864 + Palbociclib; first compound 0.4 µM) | relative viability (EHT 1864 + Palbociclib; first compound 1.265 µM) | relative viability (EHT 1864 + Palbociclib; first compound 4 µM) | relative viability (EHT 1864 + Bortezomib; first compound 0.04 µM) | relative viability (EHT 1864 + Bortezomib; first compound 0.1265 µM) | relative viability (EHT 1864 + Bortezomib; first compound 0.4 µM) | relative viability (EHT 1864 + Bortezomib; first compound 1.265 µM) | relative viability (EHT 1864 + Bortezomib; first compound 4 µM) |
| --- | --- | --- | --- | --- | --- | --- | --- | --- | --- | --- | --- | --- | --- | --- | --- | --- | --- | --- | --- | --- |
| PC-14 | 0.664 | 0.59 | 0.686 | 0.637 | 0.582 | 0.997 | 0.906 | 0.994 | 0.932 | 0.878 | 0.489 | 0.446 | 0.524 | 0.582 | 0.471 | 0.977 | 0.86 | 0.877 | 0.837 | 0.778 |
| RERF-LC-KJ | 0.617 | 0.521 | 0.459 | 0.491 | 0.479 | 1.01 | 0.838 | 0.834 | 0.896 | 0.893 | 1.09 | 0.989 | 0.929 | 1.02 | 1.11 | 1.05 | 0.948 | 1.04 | 0.951 | 1.15 |
| SK-LU-1 | 0.619 | 0.519 | 0.619 | 0.542 | 0.583 | 0.843 | 0.772 | 0.779 | 0.775 | 0.746 | 0.474 | 0.323 | 0.395 | 0.37 | 0.352 | 1.22 | – | 1.37 | 1.37 | 1.07 |
| SW 1573 | 0.525 | 0.364 | 0.462 | 0.521 | 0.511 | 0.805 | 0.722 | 0.816 | 0.746 | 0.896 | 0.299 | – | 0.481 | 0.416 | 0.317 | 1.09 | 0.923 | 1.01 | 0.975 | 0.674 |
| UMC-11 | 0.829 | 0.591 | 0.903 | 0.63 | 0.883 | 0.935 | 0.962 | – | 1.07 | 1.11 | 0.339 | 0.266 | 0.281 | 0.343 | 0.31 | 0.675 | 0.521 | 0.719 | 0.255 | 0.547 |
